Molecular target: T1, Yarrowia lipolytica F1Fo-ATP synthase (YF1Fo), monomeric (Yarrowia lipolytica, UniProt Q6C326+Q6C338+Q6CFT7)
T1 construct: gene ATP1; complete, genetically unmodified native F1Fo holoenzyme, monomeric form, solubilised in DDM from Y. lipolytica mitochondria; PEG precipitation, glycerol gradient, anion exchange; remaining Fo and peripheral stalk subunits also present; with ATP synthase subunit delta, mitochondrial; ATP synthase subunit epsilon, mitochondrial; ATP synthase subunit 9, mitochondrial (subunit c); ATP synthase subunit a
Test: malachite green ATP hydrolysis assay
Format: biochemical

T1 sequence (Q6C326 25-536): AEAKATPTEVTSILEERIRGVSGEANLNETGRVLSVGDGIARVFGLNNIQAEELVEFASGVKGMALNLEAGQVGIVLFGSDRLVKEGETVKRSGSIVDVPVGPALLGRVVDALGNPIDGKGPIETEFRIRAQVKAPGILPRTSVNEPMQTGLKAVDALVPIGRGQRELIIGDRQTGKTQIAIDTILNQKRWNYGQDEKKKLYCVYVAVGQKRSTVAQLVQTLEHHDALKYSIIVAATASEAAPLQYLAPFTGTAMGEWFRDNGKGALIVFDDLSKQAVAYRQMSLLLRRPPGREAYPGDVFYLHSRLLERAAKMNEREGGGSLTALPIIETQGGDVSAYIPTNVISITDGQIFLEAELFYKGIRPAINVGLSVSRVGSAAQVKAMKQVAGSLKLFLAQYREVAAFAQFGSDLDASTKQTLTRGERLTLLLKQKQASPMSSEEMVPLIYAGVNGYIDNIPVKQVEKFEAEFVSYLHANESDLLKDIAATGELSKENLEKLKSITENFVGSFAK
T1 sequence (Q6CFT7 33-509): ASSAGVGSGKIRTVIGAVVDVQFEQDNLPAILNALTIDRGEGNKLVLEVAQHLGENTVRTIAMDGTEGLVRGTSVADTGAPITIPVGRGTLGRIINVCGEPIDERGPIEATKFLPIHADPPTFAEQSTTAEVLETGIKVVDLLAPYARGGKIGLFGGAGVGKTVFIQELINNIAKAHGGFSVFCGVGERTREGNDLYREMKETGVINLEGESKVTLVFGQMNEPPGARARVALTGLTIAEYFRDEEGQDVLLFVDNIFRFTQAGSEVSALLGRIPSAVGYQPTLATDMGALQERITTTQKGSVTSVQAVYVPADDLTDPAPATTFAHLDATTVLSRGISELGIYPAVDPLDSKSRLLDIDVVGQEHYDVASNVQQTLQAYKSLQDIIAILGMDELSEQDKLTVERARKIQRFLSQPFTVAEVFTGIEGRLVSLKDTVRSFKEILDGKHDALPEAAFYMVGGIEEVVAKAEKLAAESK
T1 sequence (Q6C338 22-293): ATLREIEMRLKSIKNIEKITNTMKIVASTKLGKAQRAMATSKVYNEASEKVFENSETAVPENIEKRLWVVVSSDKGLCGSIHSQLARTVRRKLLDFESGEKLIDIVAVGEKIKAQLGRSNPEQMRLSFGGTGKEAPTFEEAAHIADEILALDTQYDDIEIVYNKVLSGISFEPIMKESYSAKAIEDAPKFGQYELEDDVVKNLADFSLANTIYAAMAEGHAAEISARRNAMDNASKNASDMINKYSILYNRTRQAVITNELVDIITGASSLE
T1 sequence (Q6C877 25-162 partner): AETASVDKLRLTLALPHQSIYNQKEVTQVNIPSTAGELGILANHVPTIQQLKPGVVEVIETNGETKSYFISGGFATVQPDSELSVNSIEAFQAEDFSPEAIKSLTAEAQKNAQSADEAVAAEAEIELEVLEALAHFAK
T1 sequence (Q37695 whole entry partner): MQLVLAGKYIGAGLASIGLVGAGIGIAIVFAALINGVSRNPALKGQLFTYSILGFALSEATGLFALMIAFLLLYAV

IC50 | SMILES
140 ± 56.6 µM | Oc1ccc(/N=N/c2cc(O)cc(O)c2)cc1 [PIAS-1, 5‐((4‐hydroxyphenyl)diazenyl)benzene‐1,3‐diol]
> 200 µM | COc1cc(/N=N/c2ccc(O)cc2)cc(OC)c1 [PIAS-2, 4‐((3,5‐dimethoxyphenyl)diazenyl)phenol]
> 200 µM | COc1cc(/N=N/c2ccc(O)c(OC)c2)cc(OC)c1 [PIAS-3, 4‐((3,5‐dimethoxyphenyl)diazenyl)‐2‐methoxyphenol]
14 ± 2.7 µM | Oc1cc(O)cc(/N=N/c2ccc(O)c(O)c2)c1 [PIAS-4, 4‐((3,5‐dihydroxyphenyl)diazenyl)benzene‐1,2‐diol]
185 ± 17.7 µM | Oc1ccc(/C=C/c2cc(O)cc(O)c2)cc1 [resveratrol]

— publication PMC6175411, “Reversible optical control of F1Fo‐ATP synthase using photoswitchable inhibitors” (Febs Letters, 2018)
